# Laboratory results taken from publication PMC5908160, “Inhibition of sperm motility in male macaques with EP055, a potential non-hormonal male contraceptive” (PLoS ONE, 2018).
# System: rhesus macaque (Macaca mulatta) sperm
# Assay: Sperm motility in rhesus males after i.v. infusion of EP055
# Type: in vivo
# Description: Semen was collected by direct penile stimulation with a P-T Electronics Model 303 PTE 110 Volt AC stimulator equipped with electrocardiogram pad electrodes (10–35 V, 20 ms duration, 18 pulses/sec) as previously described. Semen was collected weekly for 3 weeks to establish baseline parameters for each male. Samples were inspected visually to determine sperm motility and suitability for the study. Sperm motility data from male 28106 presented in S1 Table is representative of pre-treatment samples. Immediately after collection, the seminal plug was separated from the liquefied fraction, placed into a cryovial, flash frozen in liquid nitrogen, and stored at -80C until evaluation for drug levels. Spermatozoa were prepared by centrifugation (7 min, 200 g) of the liquid portion of the ejaculate and resuspending the sperm pellet in TALP-HEPES medium containing 0.3% bovine serum albumin at 37°C. An aliquot was taken to determine concentration using a hemocytometer, percent motility and forward progression as previously described. Baseline semen samples were collected from each male twice during the week prior to treatment. Semen was collected from each male 6–8 hr, 28–30 hr, and 78 hr post-infusion of low dose EP055 (75–80 mg/kg body weight) intravenously. After a one-week recovery period, a baseline semen sample was obtained, and the following week semen samples were collected as described above after an intravenous infusion of high dose EP055 (125–130 mg/kg).
# Sperm were diluted in TALP-HEPES medium containing 0.3% bovine serum albumin to achieve 50-100 sperm per field. Videos were taken using an iPhone 6s Plus positioned 12 inches from a Dell model E170Sc 17-inch LCD monitor (1280 x 1024 pixels at 60 Hz, 0.264 mm) attached to an Olympus CK40 inverted microscope using 20x magnification (10x objective). The video camera collected images at a resolution of 1080 x 1920 pixels at 30 frames per second and 401 ppi with a typical contrast ratio of 1300:1 for at least 8 seconds. The pixel size was 1.2 microns and the videos in .mp4 or .mov format. Videos were converted to .avi format using Any Video Converter (version 6.06, http://www.anvsoft.com/any-video-converter-free, Ultimate Media Solutions, AnvSoft Inc). These files were uncompressed using VirtualDub (version 1.10.2, http://www.virtualdub.org/).
# Images were analyzed using the MTrackJ plug in (version 1.5.1, https://imagescience.org/meijering/software/mtrackj/) for ImageJ (1.51K, https://fiji.sc/). Briefly, files were imported as uncompressed .avi files, converted to greyscale and saved as .TIFF files. Each image was calibrated by measuring a representative sperm head (acrosomal apex to midpiece) using the Straight Edge Tool, using 5.18 microns as the standard length of a Macaca mulatta sperm head. Approximately 50 sperm per video were manually tracked for the entire length of the track and the mean curvilinear velocity of each track calculated using the MEASURE function. Tracks used in the final analysis were a minimum of 0.4 seconds.
# Prior to infusion of EP055, each male was sedated with ketamine by the surgical staff at ONPRC and transported to the operating room. After positioning in dorsal recumbency, the male was intubated and placed under inhalant (isoflurane) anesthesia. Bilateral intravenous catheters were placed in cephalic veins, one for infusion and one for back-up. A percutaneous arterial line was placed in the right femoral artery for direct blood pressure measurement. Invasive blood pressure, heart rate, SpO2, and respirations were monitored by the surgical staff throughout the procedure. Initially, the low doses of EP055 in 5% DMSO-PBS 7.6 was infused by i.v. at 75-80 mg/kg, using a Medfusion 3500 pump (Smiths Medical, St. Paul, MN), and was started at a low flow rate (0.6mg/kg/min). In 3 of 4 males, a 5-10% increase in blood pressure and heart rate were noted within the first 2-3 minutes of infusion of EP055. […]
# [1] = male 28106, high dose 125–130 mg/kg, 6 hrs post-iv
# [2] = male 28106, high dose 125–130 mg/kg, 30 hrs post-iv
# [3] = male 28106, high dose 125–130 mg/kg, 78 hrs post-iv
# [4] = male 28106, high dose 125–130 mg/kg, 318 hrs post-iv
# [5] = male 28106, high dose 125–130 mg/kg, 390 hrs post-iv
# [6] = male 28106, high dose 125–130 mg/kg, 558 hrs post-iv
# [7] = male 28106, high dose 125–130 mg/kg, 894 hrs post-iv
# [8] = male 28106, low dose 75–80 mg/kg, 6 hrs post-iv
# [9] = male 28106, low dose 75–80 mg/kg, 30 hrs post-iv
# [10] = male 28106, low dose 75–80 mg/kg, 78 hrs post-iv
# [11] = male 28106, low dose 75–80 mg/kg, 342 hrs post-iv
# [12] = male 28187, high dose 125–130 mg/kg, 8 hrs post-iv
# [13] = male 28187, high dose 125–130 mg/kg, 30 hrs post-iv
# [14] = male 28187, high dose 125–130 mg/kg, 78 hrs post-iv
# [15] = male 28187, high dose 125–130 mg/kg, 414 hrs post-iv
# [16] = male 28187, low dose 75–80 mg/kg, 6 hrs post-iv
# [17] = male 28187, low dose 75–80 mg/kg, 30 hrs post-iv
# [18] = male 28187, low dose 75–80 mg/kg, 78 hrs post-iv
# [19] = male 28187, low dose 75–80 mg/kg, 582 hrs post-iv
# [20] = male 28187, low dose 75–80 mg/kg, 678 hrs post-iv
smiles,measurement,setting,value
COC(=O)NNc1nc(Nc2ccc(NC(C)=O)c(O)c2)nc(SCC(=O)O)n1 [EP055],F2,[1],25%
same,Static,[1],20%
same,VCL ± SEM,[1],72.8 ± 4.8 um/sec
same,Clumps,[2],Yes
same,F1,[2],20%
same,F2,[2],5%
same,Static,[2],75%
same,VCL ± SEM,[2],67.5 ± 7.9 um/sec
same,Clumps,[3],Yes
same,F1,[3],15%
same,F2,[3],20%
same,F3+F4,[3],10%
same,Static,[3],55%
same,VCL ± SEM,[3],80.3 ± 6.9 um/sec
same,Clumps,[4],Yes
same,F1,[4],30%
same,F2,[4],20%
same,F3+F4,[4],25%
same,Static,[4],25%
same,Clumps,[5],Yes
same,F1,[5],15%
same,F2,[5],10%
same,F3+F4,[5],50%
same,Static,[5],25%
same,Clumps,[6],Yes
same,F1,[6],15%
same,F2,[6],40%
same,F3+F4,[6],15%
same,Static,[6],30%
same,F1,[7],2%
same,F3+F4,[7],78%
same,Static,[7],20%
same,VCL ± SEM,[7],101.7 ± 4.1 um/sec
same,Clumps,[8],Yes
same,F1,[8],20%
same,F3+F4,[8],50%
same,Static,[8],30%
same,VCL ± SEM,[8],135.8 ± 6.8 um/sec
same,Clumps,[9],Yes
same,F1,[9],25%
same,F2,[9],45%
same,F3+F4,[9],5%
same,Static,[9],25%
same,VCL ± SEM,[9],105.1 ± 7.0 um/sec
same,Clumps,[10],Yes
same,F1,[10],30%
same,F2,[10],40%
same,Static,[10],30%
same,VCL ± SEM,[10],89.7 ± 6.3 um/sec
same,F1,[11],5%
same,F3+F4,[11],80%
same,Static,[11],15%
same,VCL ± SEM,[11],105.0 ± 5.8 um/sec
same,Clumps,[12],Yes
same,F1,[12],10%
same,F2,[12],50%
same,F3+F4,[12],30%
same,Static,[12],10%
same,VCL ± SEM,[12],52.9 ± 3.0 um/sec
same,Clumps,[13],Yes
same,F1,[13],10%
same,F2,[13],80%
same,Static,[13],10%
same,VCL ± SEM,[13],40.5 ± 2.7 um/sec
same,Clumps,[14],Fewer
same,F1,[14],95%
same,Static,[14],5%
same,VCL ± SEM,[14],25.4 ± 2.6 um/sec
same,Clumps,[15],Few
same,F1,[15],10%
same,F3+F4,[15],85%
same,Static,[15],5%
same,VCL ± SEM,[15],87.3 ± 6.2 um/sec
same,Clumps,[16],Few
same,F1,[16],35%
same,F3+F4,[16],65%
same,Clumps,[17],Yes
same,F3+F4,[17],10%
same,Static,[17],90%
same,Clumps,[18],Yes
same,F1,[18],95%
same,F3+F4,[18],5%
same,F1,[19],95%
same,F3+F4,[19],5%
same,F3+F4,[20],80%
same,Static,[20],20%
same,VCL ± SEM,[20],109.4 ± 13.8 um/sec
same,sperm clumping,post-infusion,severe sperm clumping
same,potential contraceptive window following administration,rhesus,24 to 48 h
same,time necessary for sperm velocity to recover completely,rhesus,more than 3 weeks
